In patent US20160324154A1, “Herbicidal mixtures comprising imazethapyr, imazamox and fomesafen, sulfentrazone or bentazone” (BASF AGROCHEMICAL PRODUCTS B.V., priority 2014, published 2016):

Legend:
Assay type in all cases: in vivo
Convolvulus arvensis = assay: Post emergence treatment, herbicidal activity against CONAR; conditions: Example 2, post emergence; g ai/ha: imazethapyr 15, imazamox 15, fomesafen 6, mixture (15 + 15) + 6
Method: Synergism can be described as an interaction where the combined effect of two or more compounds is greater than the sum of the individual effects of each of the compounds. […] However, the weed control afforded by the compounds, mixtures or compositions is not limited to these species.The analysis of synergism or antagonism between the mixtures or compositions was determined using Colby's equation. Analogously, the Colby's equation can be used to determine synergism of 3-way and higher mixtures: [table] Post Emergence Treatment by the Mixture of (Imazamox+Imazethapyr)+Fomesafen

Leptochloa fusca = assay: Post emergence treatment, herbicidal activity against LEFFA
Method: (§1) Synergism can be described as an interaction where the combined effect of two or more compounds is greater than the sum of the individual effects of each of the compounds. […] However, the weed control afforded by the compounds, mixtures or compositions is not limited to these species.The analysis of synergism or antagonism between the mixtures or compositions was determined using Colby's equation. Analogously, the Colby's equation can be used to determine synergism of 3-way and higher mixtures: [table] Post Emergence Treatment by the Mixture of (Imazamox+Imazethapyr)+Bentazon Post Emergence Treatment by the Mixture of (Imazamox+Imazethapyr)+Fomesafen Post Emergence Treatment by the Mixture of (Imazamox+Imazethapyr)+Sulfentrazone

Polygonum persicaria = assay: Post emergence treatment, herbicidal activity against POLPE
Method: as §1, with “of” for “of (Imazamox+Imazethapyr)+Bentazon Post Emergence Treatment by the Mixture of”

Brachiaria decumbens = assay: Post emergence treatment, herbicidal activity against BRADC; conditions: Example 3, post emergence; g ai/ha: imazethapyr 15, imazamox 15, sulfentrazone 10, mixture (15 + 15) + 10
Method: as §1, with “of” for “of (Imazamox+Imazethapyr)+Bentazon Post Emergence Treatment by the Mixture of (Imazamox+Imazethapyr)+Fomesafen Post Emergence Treatment by the Mixture of”

Digitaria sanguinalis = assay: Post emergence treatment, herbicidal activity against DIGSA; conditions: Example 1, post emergence; g ai/ha: imazethapyr 15, imazamox 15, bentazon 50, mixture (15 + 15) + 50
Method: as §1, with “(Imazamox+Imazethapyr)+Bentazon” for “(Imazamox+Imazethapyr)+Bentazon Post Emergence Treatment by the Mixture of (Imazamox+Imazethapyr)+Fomesafen Post Emergence Treatment by the Mixture of (Imazamox+Imazethapyr)+Sulfentrazone”

Abutilon theophrasti = assay: Post emergence treatment, herbicidal activity against ABUTH; conditions: Example 1, post emergence; g ai/ha: imazethapyr 15, imazamox 15, bentazon 25, mixture (15 + 15) + 25
Method: as §1, with “(Imazamox+Imazethapyr)+Bentazon” for “(Imazamox+Imazethapyr)+Bentazon Post Emergence Treatment by the Mixture of (Imazamox+Imazethapyr)+Fomesafen Post Emergence Treatment by the Mixture of (Imazamox+Imazethapyr)+Sulfentrazone”

Panicum miliaceum = assay: Post emergence treatment, herbicidal activity against PANMI; conditions: Example 3, post emergence; g ai/ha: imazethapyr 15, imazamox 15, sulfentrazone 6, mixture (15 + 15) + 6
Method: as §1, with “of” for “of (Imazamox+Imazethapyr)+Bentazon Post Emergence Treatment by the Mixture of (Imazamox+Imazethapyr)+Fomesafen Post Emergence Treatment by the Mixture of”

Sesbania exaltata = assay: Post emergence treatment, herbicidal activity against SEBEX; parameters: scale not given here
Method: as §1

Echinochloa crus-galli = assay: Post emergence treatment, herbicidal activity against ECHCG; conditions: Example 1, post emergence; g ai/ha: imazethapyr 15, imazamox 15, bentazon 50, mixture (15 + 15) + 50
Method: as §1, with “(Imazamox+Imazethapyr)+Bentazon” for “(Imazamox+Imazethapyr)+Bentazon Post Emergence Treatment by the Mixture of (Imazamox+Imazethapyr)+Fomesafen Post Emergence Treatment by the Mixture of (Imazamox+Imazethapyr)+Sulfentrazone”

Conyza canadensis = assay: Post emergence treatment, herbicidal activity against ERICA
Method: as §1, with “(Imazamox+Imazethapyr)+Fomesafen” for “(Imazamox+Imazethapyr)+Fomesafen Post Emergence Treatment by the Mixture of (Imazamox+Imazethapyr)+Sulfentrazone”

Ambrosia artemisiifolia = assay: Post emergence treatment, herbicidal activity against AMBEL
Method: as §1, with “(Imazamox+Imazethapyr)+Fomesafen” for “(Imazamox+Imazethapyr)+Fomesafen Post Emergence Treatment by the Mixture of (Imazamox+Imazethapyr)+Sulfentrazone”

Setaria faberi = assay: Post emergence treatment, herbicidal activity against SETFA
Method: as §1, with “of” for “of (Imazamox+Imazethapyr)+Fomesafen Post Emergence Treatment by the Mixture of”

Geranium dissectum = assay: Post emergence treatment, herbicidal activity against GERDI; parameters: scale not given here
Method: as §1

Phalaris canariensis = assay: Post emergence treatment, herbicidal activity against PHACA; parameters: scale not given here
Method: as §1

[1] = Example 1, post emergence, g ai/ha: imazethapyr 15, imazamox 15, bentazon 25, mixture (15 + 15) + 25
[2] = Example 2, post emergence, g ai/ha: imazethapyr 15, imazamox 15, fomesafen 6, mixture (15 + 15) + 6
[3] = Example 3, post emergence, g ai/ha: imazethapyr 15, imazamox 15, sulfentrazone 6, mixture (15 + 15) + 6
[4] = Example 3, post emergence, g ai/ha: imazethapyr 15, imazamox 15, sulfentrazone 10, mixture (15 + 15) + 10
[5] = Example 1, post emergence, g ai/ha: imazethapyr 15, imazamox 15, bentazon 50, mixture (15 + 15) + 50
[6] = Example 2, post emergence, g ai/ha: imazethapyr 15, imazamox 15, fomesafen 10, mixture (15 + 15) + 10

Row | SMILES | Herbicidal activity against CONAR Found (Convolvulus arvensis) | Herbicidal activity against LEFFA Found (Leptochloa fusca; [1]) | Herbicidal activity against LEFFA Found (Leptochloa fusca; [2]) | Herbicidal activity against LEFFA Found (Leptochloa fusca; [3]) | Herbicidal activity against POLPE Found (Polygonum persicaria; [2]) | Herbicidal activity against POLPE Found (Polygonum persicaria; [4]) | Herbicidal activity against BRADC Found (Brachiaria decumbens) | Herbicidal activity against DIGSA Found (Digitaria sanguinalis) | Herbicidal activity against ABUTH Found (Abutilon theophrasti) | Herbicidal activity against PANMI Found (Panicum miliaceum) | Herbicidal activity against SEBEX Found (Sesbania exaltata; [5]) | Herbicidal activity against SEBEX Found (Sesbania exaltata; [6]) | Herbicidal activity against SEBEX Found (Sesbania exaltata; [4]) | Herbicidal activity against ECHCG Found (Echinochloa crus-galli) | Herbicidal activity against ERICA Found (Conyza canadensis; [5]) | Herbicidal activity against ERICA Found (Conyza canadensis; [6]) | Herbicidal activity against AMBEL Found (Ambrosia artemisiifolia; [1]) | Herbicidal activity against AMBEL Found (Ambrosia artemisiifolia; [6]) | Herbicidal activity against SETFA Found (Setaria faberi; [5]) | Herbicidal activity against SETFA Found (Setaria faberi; [3]) | other results
1 | COCc1cnc(C2=NC(C)(C(C)C)C(=O)N2)c(C(=O)O)c1 (racemic) [Imazamox, 2-[(RS)-4-isopropyl-4-methyl-5-oxo-2-imidazolin-2-yl]-5-methoxymethylnicotinic acid] | 75 | 85 | 85 | 85 | 95 | 95 | 35 | 98 | 95 | 98 | 45 | 45 | 45 | 98 | 60 | 60 | 98 | 70 | 98 | 98 | Herbicidal activity against GERDI Found (Geranium dissectum; [1]): 80; Herbicidal activity against GERDI Found (Geranium dissectum; [2]): 80; Herbicidal activity against GERDI Found (Geranium dissectum; [6]): 95; Herbicidal activity against GERDI Found (Geranium dissectum; [3]): 80; Herbicidal activity against PHACA Found (Phalaris canariensis; [1]): 65; Herbicidal activity against PHACA Found (Phalaris canariensis; [2]): 65; Herbicidal activity against PHACA Found (Phalaris canariensis; [3]): 65
2 | CCc1cnc(C2=NC(C)(C(C)C)C(=O)N2)c(C(=O)O)c1 (racemic) [Imazethapyr, 5-ethyl-2-[(RS)-4-isopropyl-4-methyl-5-oxo-2-imidazolin-2-yl]nicotinic acid] | 65 | 45 | 45 | 45 | 0 | 75 | 10 | 80 | 50 | 70 | 0 | 0 | 0 | 80 | 55 | 55 | 98 | 65 | 90 | 95 | Herbicidal activity against GERDI Found (Geranium dissectum; [1]): 65; Herbicidal activity against GERDI Found (Geranium dissectum; [2]): 65; Herbicidal activity against GERDI Found (Geranium dissectum; [6]): 65; Herbicidal activity against GERDI Found (Geranium dissectum; [3]): 65; Herbicidal activity against PHACA Found (Phalaris canariensis; [1]): 30; Herbicidal activity against PHACA Found (Phalaris canariensis; [2]): 30; Herbicidal activity against PHACA Found (Phalaris canariensis; [3]): 30
3 | CC(C)N1C(=O)c2ccccc2NS1(=O)=O [Bentazon, 3-isopropyl-1H-2,1,3-benzothiadiazin-4(3H)-one 2,2-dioxide] |  | 0 |  |  |  |  |  | 40 | 0 |  | 40 |  |  | 35 | 40 |  | 0 |  | 10 |  | Herbicidal activity against GERDI Found (Geranium dissectum; [1]): 0; Herbicidal activity against PHACA Found (Phalaris canariensis; [1]): 0
4 | CS(=O)(=O)NC(=O)c1cc(Oc2ccc(C(F)(F)F)cc2Cl)ccc1[N+](=O)[O-] [Fomesafen, 5-(2-chloro-α,α,α-trifluoro-p-tolyloxy)-N-mesyl-2-nitrobenzamide] | 0 |  | 0 |  | 20 |  |  |  |  |  |  | 80 |  |  |  | 30 |  | 65 |  |  | Herbicidal activity against GERDI Found (Geranium dissectum; [2]): 0; Herbicidal activity against GERDI Found (Geranium dissectum; [6]): 70; Herbicidal activity against PHACA Found (Phalaris canariensis; [2]): 0
5 | Cc1nn(-c2cc(NS(C)(=O)=O)c(Cl)cc2Cl)c(=O)n1C(F)F [Sulfentrazone, 2′,4′-dichloro-5′-(4-difluoromethyl-4,5-dihydro-3-methyl-5-oxo-1H-1,2,4-triazol-1-yl)methanesulfonanilide] |  |  |  | 0 |  | 80 | 30 |  |  | 0 |  |  | 80 |  |  |  |  |  |  | 0 | Herbicidal activity against GERDI Found (Geranium dissectum; [3]): 0; Herbicidal activity against PHACA Found (Phalaris canariensis; [3]): 0
